Laboratory results: paper PMC10386514, “Cyclodextrin’s Effect on Permeability and Partition of Nortriptyline Hydrochloride” (Pharmaceuticals, 2023)
Counter-ions that a name gives are not always drawn. Like-named read-outs stand apart in the source and are kept apart here.

Columns and labels:
[1] = design: method as in doi:10.1016/j.molliq.2022.120801; conditions: RC vs PP; cited from earlier work
[2] = epidermis (ref 18) vs PermeaPad, no CD
[3] = human epidermis, buffer pH of 7.4; cited from earlier work
[4] = cited from earlier work
[5] = RC vs PP, no CD
Protocol: The permeability coefficients of NTT•HCl were determined in the absence and in the presence of cyclodextrins (HP-β-CD and SBE-β-CD) in the donor solution. A model artificial regenerated cellulose membrane MWCO 12–14 kDa (Standard Grade RC Dialysis Membrane, Flat Width 45 mm) (RC) or a biomimetic PermeaPad barrier (PHABIOC, Germany, www.permeapad.com (accessed on 1 February 2023)) (PP) were placed between the donor and receptor compartments of a vertical type Franz diffusion cell (PermeGear, Inc., Hellertown, PA, USA) with 7 mL/1 mL volumes for the donor and acceptor solutions. The cyclodextrin concentrations were 0.0115 M, 0.025 M and 0.035 M when the RC membrane was used and only 0.035 M in case of the PP barrier. Two different pH values (pH of 4.0 and pH of 6.8) were applied in the donor solution, whereas the receptor chamber was filled with a buffer with a pH of 7.4, modeling the compound’s diffusion to the blood plasma in all the experiments. […] Samples with a volume of 0.5 mL for the receptor solution were withdrawn every 30 min for 5 h and analyzed with a spectrophotometer (Spectramax 190; Molecular Devices Corporation, San Jose, CA, USA) in 96-well UV black plates (Costar, Washington, DC, USA) at a wavelength of 239 nm.
The permeability coefficient was calculated using the NTT•HCl concentration in the donor solution (C0), as follows:(7) Papp=J/C0

[6] = 37 °C
Protocol: The ∆logD parameter of Seiler was calculated for a single CD concentration in the aqueous phase, equal to 0.0115 M for both HP-β-CD and SBE-β-CD, as follows:(2) ΔlogD=logDappoct/buf−logDapphex/buf

[7] = Text: To this end, the phase distribution approach fully described in [17] was applied. […] It is evident that, in the presence of cyclodextrins, the distribution coefficient of the compound can be described by the following equation:(3) DappOrg/(buf+CD)=C2Org(drug)/C2buf(drug)+C2buf(drug•CD) where DappOrg/(buf+CD) is the distribution coefficient of the drug in the presence of CD, C2Org and C2buf are the drug concentrations in the organic and aqueous phases, respectively, and C2buf(drug•CD) is the concentration of the drug/cyclodextrin complex in the aqueous phase of the distribution system. As follows from Equation (3), the association constant of the complex can be derived from DappOrg/buf and DappOrg/(buf+CD) at specific CD concentrations using Equation (4). (4) DappOrg/(buf+CD)/DappOrg/buf=1+KC⋅CCD
It can be performed by plotting the following dependence:(5) log(DappOrg/buf−DappOrg/(buf+CD)/DappOrg/buf)=log(KC)+α⋅log(CCD)

[8] = for distribution coefficient lower than that of AMT•HCl: AMT•HCl values from ref 14; for distribution coefficient higher at buffer pH of 6.8 than at pH of 4.0: no CD; for Dapp hex/buf / Dapp oct/buf / logDapp hex/buf / logDapp oct/buf: 37 °C
Protocol: The apparent distribution coefficients of NTT•HCl ( DappOrg/buf ) in the 1-octanol/buffer ( Dappoct/buf ) and n-hexane/buffer ( Dapphex/buf ) systems were measured at 37 °C via the standard shake-flask method using mutually saturated organic and aqueous solvents, as reported in our earlier studies. The experimental procedure was partially modified in the case of cyclodextrins (both HP-β-CD and SBE-β-CD) in the aqueous phase of the distribution system. Following the respective literature, in the present study, we prepared 1-octanol or n-hexane saturated with a buffer and a buffer saturated with 1-octanol and n-hexane. Three cyclodextrin concentrations (0.0115 M, 0.025 M and 0.035 M) in the aqueous phase were introduced. For the 1-octanol/buffer distribution, the examined solution of NTT•HCl was prepared in 1-octanol saturated with a buffer (C ~ 2 × 10^−3 M), whereas for the n-hexane/buffer system, it was prepared in a buffer saturated with n-hexane (C ~ 2 × 10^−3 M). Taking into account the obtained values of NTT•HCl solubility in the organic solvents and aqueous buffers, equal volumes of the 1-octanolic and buffer phases were prepared, whereas the n-hexane/buffer ratio was 12:2. Two pH values of the aqueous phases were examined: a pH of 4.0 and a pH of 6.8, simulating different segments of the gastro-intestinal tract. The respective volumes of the phases were placed into glass vials and equilibrated in an air thermostat for 3 days at 37 °C. Then, the phases were separated after at least 6 h of storage. The concentrations in both phases were measured using a UV–Vis spectrophotometer (Cary-50, USA Cary-50 Varian, Palo Alto, CA, USA, Software Version 3.00 (339)) with the help of the calibration curves. Each distribution test was carried out at least three times.
The distribution coefficients ( DappOrg/buf ) were determined, taking into account the compound concentrations in the organic ( C2Org ) and buffer ( C2buf ) phases and the volumes of the buffer ( Vbuf ) and organic ( VOrg ) phases:(1) DappOrg/buf=C2Org⋅V^buf/C2buf⋅V^Org

CN(C)CCC=C1c2ccccc2CCc2ccccc21.Cl [AMT•HCl, amitryptiline hydrochloride]
difference between the coefficients of permeability through the PP and RC [1]: 4.0 fold

CNCCC=C1c2ccccc2CCc2ccccc21 [NTT•HCl, Nortriptyline hydrochloride]
greater resistance of the epidermis than that of the PermeaPad barrier [2]: 67 fold | coefficient of permeability through epidermis [3]: 0.36 × 10^−6 | pKa [4]: 9.23 | difference between the coefficients of permeability through the PP and RC [5]: 1.6 fold | ∆logD ([6]; pH 4.0, 0.0115 M HP-β-CD): 1.82 | ∆logD ([6]; pH 4.0, 0.0115 M SBE-β-CD): 1.79 | ∆logD ([6]; pH 4.0, no CD): 2.85 | ∆logD ([6]; pH 6.8, 0.0115 M HP-β-CD): 2.48 | ∆logD ([6]; pH 6.8, 0.0115 M SBE-β-CD): 2.23 | ∆logD ([6]; pH 6.8, no CD): 2.76 | KC, association constant of the NTT•HCl/cyclodextrin complex ([7]; HP-β-CD, aqueous phase pH of 4.0, 37 °C): 1.13 ± 0.02 M⁻¹ | KC, association constant of the NTT•HCl/cyclodextrin complex ([7]; HP-β-CD, aqueous phase pH of 6.8, 37 °C): 2.01 ± 0.05 M⁻¹ | KC, association constant of the NTT•HCl/cyclodextrin complex ([7]; SBE-β-CD, aqueous phase pH of 4.0, 37 °C): 1.14 ± 0.02 M⁻¹ | KC, association constant of the NTT•HCl/cyclodextrin complex ([7]; SBE-β-CD, aqueous phase pH of 6.8, 37 °C): 2.24 ± 0.03 M⁻¹ | distribution coefficient lower than that of AMT•HCl ([8]; 1-octanol/buffer pH of 4.0): 7 fold | distribution coefficient lower than that of AMT•HCl ([8]; 1-octanol/buffer pH of 6.8): 13 fold | distribution coefficient higher at buffer pH of 6.8 than at pH of 4.0 ([8]; 1-octanol/buffer): 1.33 fold | distribution coefficient higher at buffer pH of 6.8 than at pH of 4.0 ([8]; n-hexane/buffer): 1.61 fold | Dapp hex/buf ([8]; pH 4.0, 0.0115 M HP-β-CD): (4.6 ± 0.1) × 10^−3 | Dapp oct/buf ([8]; pH 4.0, 0.0115 M HP-β-CD): 0.299 ± 0.008 | logDapp hex/buf ([8]; pH 4.0, 0.0115 M HP-β-CD): −2.34 | logDapp oct/buf ([8]; pH 4.0, 0.0115 M HP-β-CD): −0.52 | Dapp hex/buf ([8]; pH 4.0, 0.0115 M SBE-β-CD): (3.3 ± 0.1) × 10^−3 | Dapp oct/buf ([8]; pH 4.0, 0.0115 M SBE-β-CD): 0.204 ± 0.005 | logDapp hex/buf ([8]; pH 4.0, 0.0115 M SBE-β-CD): −2.48 | logDapp oct/buf ([8]; pH 4.0, 0.0115 M SBE-β-CD): −0.69 | Dapp oct/buf ([8]; pH 4.0, 0.025 M HP-β-CD): 0.154 ± 0.003 | logDapp oct/buf ([8]; pH 4.0, 0.025 M HP-β-CD): −0.81 | Dapp oct/buf ([8]; pH 4.0, 0.025 M SBE-β-CD): 0.086 ± 0.001 | logDapp oct/buf ([8]; pH 4.0, 0.025 M SBE-β-CD): −1.07 | Dapp oct/buf ([8]; pH 4.0, 0.035 M HP-β-CD): 0.101 ± 0.001 | logDapp oct/buf ([8]; pH 4.0, 0.035 M HP-β-CD): −1.0 | Dapp oct/buf ([8]; pH 4.0, 0.035 M SBE-β-CD): 0.013 ± 0.000 | logDapp oct/buf ([8]; pH 4.0, 0.035 M SBE-β-CD): −1.89 | Dapp hex/buf ([8]; pH 4.0, no CD): (5.6 ± 0.2) × 10^−3 | Dapp oct/buf ([8]; pH 4.0, no CD): 4.159 ± 0.080 | logDapp hex/buf ([8]; pH 4.0, no CD): −2.23 | logDapp oct/buf ([8]; pH 4.0, no CD): 0.62 | Dapp hex/buf ([8]; pH 6.8, 0.0115 M HP-β-CD): (8.7 ± 0.1) × 10^−3 | Dapp oct/buf ([8]; pH 6.8, 0.0115 M HP-β-CD): 2.613 ± 0.022 | logDapp hex/buf ([8]; pH 6.8, 0.0115 M HP-β-CD): −2.06 | logDapp oct/buf ([8]; pH 6.8, 0.0115 M HP-β-CD): 0.42 | Dapp hex/buf ([8]; pH 6.8, 0.0115 M SBE-β-CD): (8.6 ± 0.3) × 10^−3 | Dapp oct/buf ([8]; pH 6.8, 0.0115 M SBE-β-CD): 1.443 ± 0.040 | logDapp hex/buf ([8]; pH 6.8, 0.0115 M SBE-β-CD): −2.07 | logDapp oct/buf ([8]; pH 6.8, 0.0115 M SBE-β-CD): 0.16 | Dapp oct/buf ([8]; pH 6.8, 0.025 M HP-β-CD): 1.993 ± 0.030 | logDapp oct/buf ([8]; pH 6.8, 0.025 M HP-β-CD): 0.30 | Dapp oct/buf ([8]; pH 6.8, 0.025 M SBE-β-CD): 0.364 ± 0.011 | logDapp oct/buf ([8]; pH 6.8, 0.025 M SBE-β-CD): −0.44 | Dapp oct/buf ([8]; pH 6.8, 0.035 M HP-β-CD): 1.395 ± 0.025 | logDapp oct/buf ([8]; pH 6.8, 0.035 M HP-β-CD): 0.15 | Dapp oct/buf ([8]; pH 6.8, 0.035 M SBE-β-CD): 0.227 ± 0.006 | logDapp oct/buf ([8]; pH 6.8, 0.035 M SBE-β-CD): −0.64 | Dapp hex/buf ([8]; pH 6.8, no CD): (9.5 ± 0.2) × 10^−3 | Dapp oct/buf ([8]; pH 6.8, no CD): 5.537 ± 0.111 | logDapp hex/buf ([8]; pH 6.8, no CD): −2.02 | logDapp oct/buf ([8]; pH 6.8, no CD): 0.74
